Four compounds from patent publication US20240319171A1, “METHOD FOR SCREENING SUBSTANCE, SYSTEM FOR SCREENING SUBSTANCE, METHOD FOR PRODUCING A CLUMP FROM STEM CELLS, AND METHOD FOR PRODUCING DIFFERENTIATED CELLS” (priority 2023, published 2024) can be followed below.

Data set [1] relates to human subject 1-derived induced fibroblasts. The class given is cell-based.
Data set [2] deals with human subject 2-derived induced fibroblasts. Kind of data set: collagen production by induced fibroblasts after adding substance (subject 2). The conditions noted are these: compared with the control in which the addition was not carried out, FIG. 14B. The format is cell-based. The source says: (§1) Skin cells were collected from a human subject 1 and a human subject 2, and iPS cells were induced from the skin cells from the respective subjects. Further, in the same manner as in Example 2, fibroblasts were induced from the human subject 1-derived iPS cells, and fibroblasts were induced from the human subject 2-derived iPS cells.

The test system of data set [3] is human subject 1-derived induced fibroblasts. Kind of data set: collagen production by induced fibroblasts after adding substance (subject 1). The format is cell-based. The conditions noted are these: FIG. 14A; for amount of the collagen produced: human subject 1-derived induced fibroblasts, compared with the control in which the addition was not carried out.
Excerpt: as §1

Data set [4] concerns human subject 2-derived induced fibroblasts. The conditions noted are these: among phenoxyethanol, paraben, benzalkonium chloride, sodium salicylate, FIG. 15B. The protocol:
In addition, phenoxyethanol, paraben, benzalkonium chloride, and sodium salicylate, which are respectively antiseptic agents, were prepared.

Consider `OCCOc1ccccc1` [phenoxyethanol], for which, in data set [1], the “survival rate of cells” value is recorded as “highest”.
Turning to `CC1=C(/C=C/C(C)=C/C=C/C(C)=C/CO)C(C)(C)CCC1` [retinol], the “amount of the collagen produced” value in data set [2] and in data set [3] was “increased” in each case.
On to `O=C([O-])c1ccccc1O.[Na+]` [sodium salicylate], for which the “survival rate of cells” value in data set [4] is listed as “highest”.
For `O=C1O[C@H]([C@@H](O)CO)C(O)=C1O` [vitamin C], the “amount of the collagen produced” value in data set [2] and in data set [3] was “increased” in each case. Also, in data set [3] (induced fibroblasts derived from human subject 1, among vitamin C, retinol, iPS cell culture medium supernatant), the “effectiveness in increasing the production amount of collagen, compared among added substances” value is given as “most effective”.
